This note sets out measurements from a melting point compilation (Tetko et al.; mined from patent text by program, amines drawn as free bases though some values may be those of a salt).

In general, melting point refers to the temperature, or range, at which the solid turns liquid.

`CCCc1cc2cc(OCC(=O)OCC)c(Cl)c(Cl)c2s1`: the melting point was 62 to 63 °C.

`COc1ccccc1Oc1c(Cl)ncnc1Cl` had a melting point of 79 to 80 °C.

Take `N#CCC(=NC#N)N1CCCC1`: the melting point turned out to be 45 °C.

`NC(=O)c1cc(-n2cncn2)ccc1N` registered a melting point of 216 to 218 °C.

As for `FS(F)(F)(F)(F)c1cc(Br)cc(S(F)(F)(F)(F)F)c1`, the melting point is 65.9 to 66.4 °C.

On to `Cc1cc(Cl)c2c(n1)C(O)CCC2` (configuration not stated), for which the melting point is 87 to 90 °C.

For `COc1cccc2c1Oc1cc(SC)ccc1C2`, the melting point was 112 to 114 °C.

`CCOC(=O)C1=C(C)Nc2cc(=O)[nH]n2C1c1cccc(Cl)c1Cl` (configuration not stated) showed a melting point of 213 to 218 °C.

`CSc1nc(N)c(O)c(=O)[nH]1` came in with a melting point of 243 to 245 °C.

Turning to `COC(=O)c1ccc2c(c1)S(=O)(=O)c1ccccc1N=C2`, the melting point is 181 to 182 °C.

In turn, `O=C(O)c1ccc(-c2cc3ccccc3o2)cc1` had a melting point of 292 to 294 °C.

Regarding `COC(=O)c1[nH]c2c(C)ccc(C)c2c1Br`, the melting point was 173 to 174 °C.

In turn, `CC(C)CN(Cc1nc(-c2ncn3c2CN(C)C(=O)c2c(Cl)cccc2-3)no1)CC(C)C` gave a melting point of 125 to 128 °C.

Take `CON=C(C)c1cc2c(Oc3ccc(Cl)cc3)cncc2s1`: the melting point lay within 126 to 128 °C.

Turning to `Cc1ccc2c(c1)N=C(N1CCN(C)CC1)c1cscc1O2`, the melting point worked out at 222 °C.

Take `Cc1ccc(Cc2cnc(NCCCN(C)c3ncc(Br)cn3)[nH]c2=O)cn1`: the melting point was 137 to 140 °C.

Take `Cn1ccnc1SCCN1CCC(=C2c3ccn(C)c3CCn3ccnc32)CC1`: the melting point is 200 °C.

Compound `COc1cc(N)c(Cl)cc1C(=O)NCC1CCN(CCCCCNC(=O)c2cccc(Cl)c2)CC1` came in with a melting point of 139 to 142 °C.

In turn, `CCn1cc(C(=O)O)c(=O)c2cc(F)c(N3CCSCC3)nc21` returned a melting point of 241 to 243 °C.

Turning to `CC1(C)OC(c2ccc(S(C)(=O)=O)c(F)c2)=C(c2cccc(Cl)c2)C1=S`, the melting point was in the range of 105 to 106 °C.

As for `CC1(C)COC(c2ccc(N)cc2)=N1`, the melting point lay within 227 to 230 °C.

`CC1C(=O)CCS1(=O)=O` (configuration not stated) yielded a melting point of 83 to 85 °C.

In the case of `C#CCOCC1CCC(COCC#C)CC1` (configuration not stated), the melting point fell in the range of 56 to 60 °C.

For `CC1(CCN2C(=O)c3cccc([N+](=O)[O-])c3C2O)OCCO1` (configuration not stated), the melting point was 130 °C.

The compound `COC(=O)CCc1ccc(N2CCN(C34CCC(C#N)(CC3)CC4)C2=O)cc1` registered a melting point of 195 to 197 °C.

As for `COc1cc(CCC2=NNC(=O)CC2)cc(OC)c1OC`, the melting point is 116 to 117 °C.

Regarding `CCOc1ccc(C(=O)N2CC(C(=O)OC)N(S(=O)(=O)c3ccc(OC)cc3)Cc3ccccc32)cc1` (configuration not stated), the melting point is 187 to 190 °C.

Take `CS(=O)(=O)c1ccc(-c2nc(C(F)(F)F)nn2-c2ccc(O)cc2)cc1`: the melting point stood at 246 °C.

`CC(=O)Oc1c(C)nc(N(C)C)nc1-c1ccccc1` displayed a melting point of 126 to 128 °C.

For the compound `N#CC(C#N)C(c1cccc2ccccc12)c1cccc2ccccc12`, the melting point fell in the range of 179 to 181 °C.

Consider `COC(=O)c1ccc(I)cc1Nc1ccccc1C(=O)O`, for which the melting point was 206 to 208 °C.

As for `Cc1[nH]c(=O)ccc1-c1ccc(-n2ccnc2)cc1`, the melting point lay in the range of 310 to 314 °C.

`C=CCOc1cccc2c1ONC(=O)C2` displayed a melting point of 174 to 175 °C.

Regarding `COC(=O)CCC(=O)c1ccc(-c2ccc(C)cc2)cc1`, the melting point is 121 to 122 °C.

As for `CCN(CC)CCNC(=O)c1ccc(I)c2cc3ccccc3nc12`, the melting point fell in the range of 103 to 105 °C.

On to `C[C@@]1(CO)CCC(=O)O1`, for which the melting point is 44.5 to 46.5 °C.

With `CCCCc1nc2cccc(C(=O)OCCO)c2n1Cc1ccc(-c2ccccc2-c2nnn[nH]2)cc1`, the melting point fell in the range of 145 to 147 °C.

Take `CCOC(=O)C=Cc1ccc2c(c1)c1cc(C=CC(=O)OCC)ccc1n2CC`: the melting point fell in the range of 164 to 168 °C.

`Cc1ccc(C(=O)c2ccc3[nH]c(=O)nc(-c4cccc(Cl)c4)c3c2)cc1` yielded a melting point of 181 °C.

Compound `CC1(CO)COC(Cn2ccnc2)(c2ccc(Cl)cc2Cl)OC1` (configuration not stated) had a melting point of 174 to 175 °C.

Compound `Ic1ccc2c(c1)Sc1ccc(I)cc1S2` had a melting point of 169 to 170 °C.

As for `COc1cccc2c1CCC(C#N)=C2`, the melting point fell in the range of 47 to 49 °C.

On to `Nc1ccc(C(=O)c2ccccc2)cc1CC(=O)O`, for which the melting point lay in the range of 143 to 145 °C.

In turn, `CSc1nc(C)c(CCO)c(=O)n1C` displayed a melting point of 117 to 118 °C.

For `Cc1cccc2c1N(CC(=O)N1CC3CCC(CC3)C1)C(=O)C(NC(=O)Nc1cccc(-c3nnn[nH]3)c1)N=C2c1ccccc1F` (configuration not stated), the melting point is 210 to 213 °C.

Regarding `CCCNc1nc(N)nc2c1ncn2C1C=CC(CO)C1` (configuration not stated), the melting point fell in the range of 138 to 140 °C.

`CCCC(C)(N)Cc1c[nH]c2ccccc12` (configuration not stated) showed a melting point of 73.5 to 74.5 °C.

`Nc1nnc(N2CCN(CCOc3ccccc3)CC2)[nH]1` registered a melting point of 131 to 133 °C.

For the compound `C=C1CCCC2CCC3C(CCC4(C)C3C(C=O)C35OCCOC43OCCO5)C12C` (configuration not stated), the melting point turned out to be 192 °C.

Regarding `Cc1nc(C)c(Cl)c(NCc2nccc(OCCOCCSCCn3c([N+](=O)[O-])cnc3C)c2C)n1`, the melting point was 102 to 105 °C.

Take `COC(=O)c1ccc(CN(CC2CCOCC2)S(=O)(=O)c2ccc(Cl)cc2)cc1`: the melting point fell in the range of 115 to 117 °C.

The compound `O=c1[nH]c2ccccc2c(=O)cc1N(CCO)CCO` gave a melting point of 204 to 205 °C.

`O=C(O)Cc1sc(Nc2ccccc2)nc1-c1ccc(Cl)cc1` had a melting point of 256 to 257 °C.

`Cc1cccc(C(=O)Cc2ccnc(-c3ccc(OC(F)(F)F)cc3)c2)n1` came in with a melting point of 76 to 78 °C.

`CS(=O)c1ccc(C2=C(c3cccc(F)c3)C(=O)C(C)(C)O2)cc1F` (configuration not stated): the melting point fell in the range of 148 to 149 °C.

As to `CCCCNc1c(C(C)=O)cnc2onc(C)c12`, the melting point fell in the range of 116 to 117 °C.

`CC[C@@]12C[C@@](C)(O)[C@](O)(c3ccccc3)C[C@H]1CCc1cc(OCc3nnn[nH]3)ccc12`: the melting point is 108 to 110 °C.

As for `C=CCOc1cc(O)c(C=NO)c(Cl)c1`, the melting point was in the range of 65 to 66 °C.

In turn, `CCOc1ccc2c(c1)n(C1CCCCC1)c(=O)n2S(=O)(=O)c1ccc(C(=O)NC(C)(C)C)cc1OC` gave a melting point of 252 °C.

`O=[N+]([O-])c1nccn1C1CCCCO1` (configuration not stated): the melting point stood at 50 °C.

Compound `Cc1ccc(-c2ccc(/C=C/C(=O)O)o2)cc1` returned a melting point of 183 to 184 °C.

As for `CS(=O)(=O)c1ccc(-c2cc(C(F)F)nn2C2CCCCC2)cc1F`, the melting point was in the range of 138 to 139 °C.

The compound `N#Cc1c(N2CCCCC2)cc(-c2ccc3ccc4cccc5ccc2c3c45)c2c1-c1ccccc1C2=O` had a melting point of 220 to 222 °C.

In turn, `COc1ccc(C(=O)Nc2ccc(C(=O)O)cc2)cc1C1(C)CCCCC1` gave a melting point of 230 to 231 °C.

Turning to `CCCn1c(COCC)nc2c(N)nc3ccc(OCC(=O)N4CCOCC4)cc3c21`, the melting point lay in the range of 196 to 197 °C.

In turn, `O=S(=O)(N=CN1CCOCC1)c1cc(Br)cc(Br)c1` registered a melting point of 195 to 197 °C.

Compound `CCc1nn(CCO)c(CC)c1Oc1cc(C#N)cc(C#N)c1` showed a melting point of 125 °C.
